What is called EC50 is the midpoint of the concentration-response curve.

The text below walks through data of patent publication US11254663B2 (BRISTOL-MYERS SQUIBB COMPANY, priority 2019, dated 2022).

For one assay, the target named is FXR (Homo sapiens (Human), UniProt Q96RI1). As to the kind of experiment: transient human FXR/Gal4-luciferase reporter assay.
Sequence of FXR (Q96RI1 262-486): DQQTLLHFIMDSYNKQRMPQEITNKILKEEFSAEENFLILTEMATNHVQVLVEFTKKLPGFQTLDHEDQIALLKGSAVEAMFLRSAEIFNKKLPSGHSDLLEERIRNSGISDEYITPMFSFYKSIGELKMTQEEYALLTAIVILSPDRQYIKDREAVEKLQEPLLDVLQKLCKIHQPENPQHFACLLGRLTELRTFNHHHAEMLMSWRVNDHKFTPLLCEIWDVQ
Details: not given
It counts as cell-based. A digest of the protocol:
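Compound exposure ran overnight at 37 °C and activity was measured as luminescence with Steady-Glo reagent. The cells were a HEK293 line stably expressing firefly luciferase under five Gal4 response elements. They were transiently transfected, one night beforehand, with a plasmid encoding Gal4 DNA-binding domain fused to the human FXR ligand-binding domain.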
(In general: A reporter such as luciferase makes a cellular process visible.)
`Cc1nc2ccc(-c3cccc(N(CC45CCC(c6nc(C(F)F)no6)(CC4)CC5)C(=O)C45CC(F)(C4)C5)c3)cc2s1` [Example 471, N-((4-(3-(difluoromethyl)-1,2,4-oxadiazol-5-yl)bicyclo[2.2.2]octan-1-yl)methyl)-3-fluoro-N-(3-(2-methylbenzo[d]thiazol-6-yl)phenyl)bicyclo[1.1.1]pentane-1-carboxamide]: the midpoint of the response, the EC50, lay at 135 nM.

Regarding `CC(C)(C)c1noc(C23CCC(CN(C(=O)C45CC(F)(C4)C5)c4cncc(-c5cnc(C6CC6)nc5)c4)(CC2)CC3)n1` [Example 473, N-((4-(3-(tert-butyl)-1,2,4-oxadiazol-5-yl)bicyclo[2.2.2]octan-1-yl)methyl)-N-(5-(2-cyclopropylpyrimidin-5-yl)pyridin-3-yl)-3-fluorobicyclo[1.1.1]pentane-1-carboxamide], the EC50 turned out to be 501 nM.

Regarding `Cc1nc2ccc(-c3cncc(N(CC45CCC(c6nc(C(C)(C)C)no6)(CC4)CC5)C(=O)C45CC(F)(C4)C5)c3)cc2s1` [Example 474, N-((4-(3-(tert-butyl)-1,2,4-oxadiazol-5-yl)bicyclo[2.2.2]octan-1-yl)methyl)-3-fluoro-N-(5-(2-methylbenzo[d]thiazol-6-yl)pyridin-3-yl)bicyclo[1.1.1]pentane-1-carboxamide], the response was half-maximal at 541 nM (EC50).

Compound `CC(C)(C)c1noc(C23CCC(CN(C(=O)C45CC(F)(C4)C5)c4cncc(-c5ccc(NS(C)(=O)=O)cc5)c4)(CC2)CC3)n1` [Example 475, N-((4-(3-(tert-butyl)-1,2,4-oxadiazol-5-yl)bicyclo[2.2.2]octan-1-yl)methyl)-3-fluoro-N-(5-(4-(methylsulfonamido)phenyl)pyridin-3-yl)bicyclo[1.1.1]pentane-1-carboxamide] came in with an EC50 of 1600 nM.

`CCOc1ccc(-c2cncc(N(CC34CCC(c5nc(C(C)(C)C)no5)(CC3)CC4)C(=O)C34CC(F)(C3)C4)c2)cc1` [Example 476, N-((4-(3-(tert-butyl)-1,2,4-oxadiazol-5-yl)bicyclo[2.2.2]octan-1-yl)methyl)-N-(5-(4-ethoxyphenyl)pyridin-3-yl)-3-fluorobicyclo[1.1.1]pentane-1-carboxamide] showed an EC50 of 560 nM.

Take `CCOc1ccc(-c2cncc(N(CC34CCC(c5nc(C(C)(C)C)no5)(CC3)CC4)C(=O)C34CC(F)(C3)C4)c2)cn1` [Example 477, N-((4-(3-(tert-butyl)-1,2,4-oxadiazol-5-yl)bicyclo[2.2.2]octan-1-yl)methyl)-N-(6′-ethoxy-[3,3′-bipyridin]-5-yl)-3-fluorobicyclo[1.1.1]pentane-1-carboxamide]: the midpoint of the response, the EC50, lay at 485 nM.

Take `CC(C)(C)c1nc(C23CCC(CN(C(=O)C45CC(F)(C4)C5)c4cncc(-c5ccc6[nH]c(=O)oc6c5)c4)(CC2)CC3)no1` [Example 479, N-((4-(5-(tert-butyl)-1,2,4-oxadiazol-3-yl)bicyclo[2.2.2]octan-1-yl)methyl)-3-fluoro-N-(5-(2-oxo-2,3-dihydrobenzo[d]oxazol-6-yl)pyridin-3-yl)bicyclo[1.1.1]pentane-1-carboxamide]: the EC50 came out at 367 nM.

For the compound `CC(C)(C)c1nc(C23CCC(CN(C(=O)C45CC(F)(C4)C5)c4cncc(-c5cnc6nc(C7CC7)sc6c5)c4)(CC2)CC3)no1` [Example 480, N-((4-(5-(tert-butyl)-1,2,4-oxadiazol-3-yl)bicyclo[2.2.2]octan-1-yl)methyl)-N-(5-(2-cyclopropylthiazolo[4,5-b]pyridin-6-yl)pyridin-3-yl)-3-fluorobicyclo[1.1.1]pentane-1-carboxamide], the EC50 was determined as 988 nM.

`CC(C)(C)c1nc(C23CCC(CN(C(=O)C45CC(F)(C4)C5)c4cncc(-c5ccc(NS(C)(=O)=O)cc5)c4)(CC2)CC3)no1` [Example 481, N-((4-(5-(tert-butyl)-1,2,4-oxadiazol-3-yl)bicyclo[2.2.2]octan-1-yl)methyl)-3-fluoro-N-(5-(4-(methylsulfonamido)phenyl)pyridin-3-yl)bicyclo[1.1.1]pentane-1-carboxamide] showed an EC50 of 580 nM.

`CCOc1ccc(-c2cncc(N(CC34CCC(c5noc(C(C)(C)C)n5)(CC3)CC4)C(=O)C34CC(F)(C3)C4)c2)cc1` [Example 482, N-((4-(5-(tert-butyl)-1,2,4-oxadiazol-3-yl)bicyclo[2.2.2]octan-1-yl)methyl)-N-(5-(4-ethoxyphenyl)pyridin-3-yl)-3-fluorobicyclo[1.1.1]pentane-1-carboxamide] displayed an EC50 of 322 nM.

The compound `CC(C)(C)c1nc(C23CCC(CN(C(=O)C45CC(F)(C4)C5)c4cncc(-c5ccc(OC(F)F)cc5)c4)(CC2)CC3)no1` [Example 483, N-((4-(5-(tert-butyl)-1,2,4-oxadiazol-3-yl)bicyclo[2.2.2]octan-1-yl)methyl)-N-(5-(4-(difluoromethoxy)phenyl)pyridin-3-yl)-3-fluorobicyclo[1.1.1]pentane-1-carboxamide] came in with an EC50 of 255 nM.

In turn, `Cc1nc2ccc(-c3cncc(N(CC45CCC(c6noc(C(C)(C)C)n6)(CC4)CC5)C(=O)C45CC(F)(C4)C5)c3)cc2s1` [Example 484, N-((4-(5-(tert-butyl)-1,2,4-oxadiazol-3-yl)bicyclo[2.2.2]octan-1-yl)methyl)-3-fluoro-N-(5-(2-methylbenzo[d]thiazol-6-yl)pyridin-3-yl)bicyclo[1.1.1]pentane-1-carboxamide] gave an EC50 of 344 nM.

In turn, `CS(=O)(=O)Nc1ccc(-c2cccc(N(CC34CCC(c5ccc(C(F)(F)F)cn5)(CC3)CC4)C(=O)C34CC(F)(C3)C4)c2)cc1` [Example 488, 3-fluoro-N-(4′-(methylsulfonamido)-[1,1′-biphenyl]-3-yl)-N-((4-(5-(trifluoromethyl)pyridin-2-yl)bicyclo[2.2.2]octan-1-yl)methyl)bicyclo[1.1.1]pentane-1-carboxamide] displayed an EC50 of 876 nM.

For `CCOc1ccc(-c2cccc(N(CC34CCC(c5ccc(C(F)(F)F)cn5)(CC3)CC4)C(=O)C34CC(F)(C3)C4)c2)cc1` [Example 489, N-(4′-ethoxy-[1,1′-biphenyl]-3-yl)-3-fluoro-N-((4-(5-(trifluoromethyl)pyridin-2-yl)bicyclo[2.2.2]octan-1-yl)methyl)bicyclo[1.1.1]pentane-1-carboxamide], a half-maximal response (EC50) required 1640 nM.

As to `O=C(N(CC12CCC(c3ccc(C(F)(F)F)cn3)(CC1)CC2)c1cccc(-c2cnc(C3CC3)nc2)c1)C12CC(F)(C1)C2` [Example 490, N-(3-(2-cyclopropylpyrimidin-5-yl)phenyl)-3-fluoro-N-((4-(5-(trifluoromethyl)pyridin-2-yl)bicyclo[2.2.2]octan-1-yl)methyl)bicyclo[1.1.1]pentane-1-carboxamide], a half-maximal effect (EC50) was put at 334 nM.

Compound `O=C(N(CC12CCC(c3ccc(C(F)(F)F)cn3)(CC1)CC2)c1cccc(-c2cnc(C(F)(F)F)nc2)c1)C12CC(F)(C1)C2` [Example 491, 3-fluoro-N-((4-(5-(trifluoromethyl)pyridin-2-yl)bicyclo[2.2.2]octan-1-yl)methyl)-N-(3-(2-(trifluoromethyl)pyrimidin-5-yl)phenyl)bicyclo[1.1.1]pentane-1-carboxamide] displayed an EC50 of 1630 nM.

With `CCOc1ccc(-c2cccc(N(CC34CCC(c5ccc(C(F)(F)F)cn5)(CC3)CC4)C(=O)C34CC(F)(C3)C4)c2)cn1` [Example 492, N-(3-(6-ethoxypyridin-3-yl)phenyl)-3-fluoro-N-((4-(5-(trifluoromethyl)pyridin-2-yl)bicyclo[2.2.2]octan-1-yl)methyl)bicyclo[1.1.1]pentane-1-carboxamide], the concentration giving a half-maximal response (EC50) is 567 nM.

Compound `O=C(N(CC12CCC(c3ccc(C(F)(F)F)cn3)(CC1)CC2)c1cccc(-c2ccc(OC(F)F)cc2)c1)C12CC(F)(C1)C2` [Example 493, N-(4′-(difluoromethoxy)-[1,1′-biphenyl]-3-yl)-3-fluoro-N-((4-(5-(trifluoromethyl)pyridin-2-yl)bicyclo[2.2.2]octan-1-yl)methyl)bicyclo[1.1.1]pentane-1-carboxamide] came in with an EC50 of 552 nM.

Staying with this assay, now noted: Gal4-hFXR fusion construct, HEK293 reporter cells; response relative to 8 μM GW-4064.
`CCOc1ncc(-c2cncc(N(CC34CCC(c5nc(C(C)(C)C)no5)(CC3)CC4)C(=O)C34CC(F)(C3)C4)c2)cn1` [Example 472, N-((4-(3-(tert-butyl)-1,2,4-oxadiazol-5-yl)bicyclo[2.2.2]octan-1-yl)methyl)-N-(5-(2-ethoxypyrimidin-5-yl)pyridin-3-yl)-3-fluorobicyclo[1.1.1]pentane-1-carboxamide]: the EC50 came to 758 nM.

With `CCOc1ncc(-c2cncc(N(CC34CCC(c5noc(C(C)(C)C)n5)(CC3)CC4)C(=O)C34CC(F)(C3)C4)c2)cn1` [Example 478, N-((4-(5-(tert-butyl)-1,2,4-oxadiazol-3-yl)bicyclo[2.2.2]octan-1-yl)methyl)-N-(5-(2-ethoxypyrimidin-5-yl)pyridin-3-yl)-3-fluorobicyclo[1.1.1]pentane-1-carboxamide], the 50% effective concentration (EC50) turned out to be 1100 nM.

`CC(C)(C)c1nc(C23CCC(CN(C(=O)C45CC(F)(C4)C5)c4cncc(-c5ncc(OC(F)F)cn5)c4)(CC2)CC3)no1` [Example 485, N-((4-(5-(tert-butyl)-1,2,4-oxadiazol-3-yl)bicyclo[2.2.2]octan-1-yl)methyl)-N-(5-(5-(difluoromethoxy)pyrimidin-2-yl)pyridin-3-yl)-3-fluorobicyclo[1.1.1]pentane-1-carboxamide] registered an EC50 of 41 nM.

`CC(C)(C)c1nc(C23CCC(CN(C(=O)C45CC(F)(C4)C5)c4cncc(-c5ccc(OC(F)F)cn5)c4)(CC2)CC3)no1` [Example 486, N-((4-(5-(tert-butyl)-1,2,4-oxadiazol-3-yl)bicyclo[2.2.2]octan-1-yl)methyl)-N-(5-(difluoromethoxy)-[2,3′-bipyridin]-5′-yl)-3-fluorobicyclo[1.1.1]pentane-1-carboxamide] had an EC50 of 89 nM.

With `CCOc1ncc(-c2cccc(N(CC34CCC(c5ccc(C(F)(F)F)cn5)(CC3)CC4)C(=O)C34CC(F)(C3)C4)c2)cn1` [Example 487, N-(3-(2-ethoxypyrimidin-5-yl)phenyl)-3-fluoro-N-((4-(5-(trifluoromethyl)pyridin-2-yl)bicyclo[2.2.2]octan-1-yl)methyl)bicyclo[1.1.1]pentane-1-carboxamide], the EC50 was determined as 418 nM.
